Test results reported in patent US8343911B2, “Methods of inhibiting and treating bacterial biofilms by metal chelators” (University of Iowa Research Foundation, priority 2002, dated 2013).

System: P. aeruginosa biofilms
Experiment: Antimicrobial susceptibility of biofilms grown in rotating disk reactor (viable cell counts)
Format: cell-based
Conditions: control biofilms grown without conalbumin, FIG. 5
Description: P. aeruginosa biofilms for susceptibility tests were grown in a rotating disk reactor. Fe-unsaturated conalbumin (Sigma Chemical Co.) was added to standard biofilm medium at indicated concentrations for the duration of biofilm growth. Discs and attached bacteria were then washed 3 times in distilled water, and treated for 4 h in 1 ml of H2O2 (Fisher Scientific) or tobramycin (Eli Lilly, Indianapolis, Ind.) at indicated concentrations. The treated discs were washed 3 times, and bacteria were removed and dispersed in 2 ml sterile PBS by homogenization (Brinkman Homogenizer, model 10/35). Viable cell numbers were enumerated by plate counting.

SMILES	effect on viability of control biofilms (1000 μg/ml tobramycin, 4 h of treatment)	effect on viability of control biofilms (500 mM H2O2, 4 h of treatment)
NC[C@H]1O[C@H](O[C@H]2[C@H](O)[C@@H](O[C@H]3O[C@H](CO)[C@@H](O)[C@H](N)[C@H]3O)[C@H](N)C[C@@H]2N)[C@H](N)C[C@@H]1O [tobramycin, reference compound]	minimal effects on viability	
OO [H2O2, reference compound]		minimal effects on viability
